Data on 24 molecules can be found in US10660876B2, “Amino compounds for treatment of medical disorders” (Achillion Pharmaceuticals, Inc., priority 2015, dated 2020).

Bounds are passed on as bounds.

In general, IC50 refers to the midpoint of a concentration-inhibition curve.

Human Factor D, sequence (P00746 26-253): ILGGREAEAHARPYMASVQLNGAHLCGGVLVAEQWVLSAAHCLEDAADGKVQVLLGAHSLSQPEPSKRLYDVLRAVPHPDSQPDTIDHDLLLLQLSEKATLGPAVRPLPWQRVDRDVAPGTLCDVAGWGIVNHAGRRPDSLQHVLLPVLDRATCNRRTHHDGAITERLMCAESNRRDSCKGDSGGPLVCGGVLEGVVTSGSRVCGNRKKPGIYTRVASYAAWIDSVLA

The target of the first assay is Human Factor D (Homo sapiens (Human), UniProt P00746). Briefly: Human Factor D Assay. The class given is biochemical. As to conditions: Table 1; Factor D purified from human serum, 80 nM, substrate Z-L-Lys-SBzl; read-out: IC50. On the procedure:
Example 12. Human Factor D Assay
Human Factor D (purified from human serum, Complement Technology, Inc.) at 80 nM final concentration is incubated with test compound at various concentrations for 5 minutes at room temperature in 50 mM Tris, 1M NaCl, pH 7.5. A synthetic substrate Z-L-Lys-SBzl and DTNB (Ellman's reagent) are added to final concentrations of 100 μM each. Absorbance at 405 nm (A405) is recorded at 30 second intervals for 30 minutes using a microplate spectrophotometer. IC50 values are calculated by nonlinear regression of complement Factor D reaction rates as a function of test compound concentration.
In the case of `CC(=O)c1cn(CC(=O)N2C[C@H](F)C[C@H]2C(=O)Nc2cncc(Cl)c2)c2ccc(Nc3cncnc3)cc12` [Compound 22, (2S,4R)-1-(2-(3-acetyl-5-(pyrimidin-5-ylamino)-1H-indol-1-yl)acetyl)-N-(5-chloropyridin-3-yl)-4-fluoropyrrolidine-2-carboxamide], the IC50 is below 1000 nM.

For the molecule `CC(=O)c1cn(CC(=O)N2C[C@H](F)C[C@H]2C(=O)Nc2cccc(O)n2)c2ccc(Nc3cncnc3)cc12` [Compound 68, (2S,4R)-1-(2-(3-acetyl-5-(pyrimidin-5-ylamino)-1H-indol-1-yl)acetyl)-4-fluoro-N-(6-hydroxypyridin-2-yl)pyrrolidine-2-carboxamide], the half-inhibitory concentration (IC50) was below 1000 nM.

Regarding `NC(=O)c1nn(CC(=O)N2C[C@H](F)C[C@H]2C(=O)Nc2cccc(-c3ccccc3Cl)c2F)c2ccc(Nc3cccnn3)cc12` [Compound 9, 1-(2-((2S,4R)-2-(2′-chloro-2-fluorobiphenyl-3-ylcarbamoyl)-4-fluoropyrrolidin-1-yl)-2-oxoethyl)-5-(pyridazin-3-ylamino)-1H-indazole-3-carboxamide], the IC50 is below 1000 nM.

`NC(=O)c1nn(CC(=O)N2C[C@H](F)C[C@H]2C(=O)Nc2cccc(Cl)n2)c2ccc(Nc3cncnc3)cc12` [Compound 12, 1-(2-((2S,4R)-2-(6-chloropyridin-2-ylcarbamoyl)-4-fluoropyrrolidin-1-yl)-2-oxoethyl)-5-(pyrimidin-5-ylamino)-1H-indazole-3-carboxamide]: the IC50 is below 1000 nM.

For the molecule `CC(=O)c1cn(CC(=O)N2C[C@H](F)C[C@H]2C(=O)Nc2cccc3c2CN(c2ccccn2)C3)c2ccc(Nc3cncnc3)cc12` [Compound 27, (2S,4R)-1-(2-(3-acetyl-5-(pyrimidin-5-ylamino)-1H-indol-1-yl)acetyl)-4-fluoro-N-(2-(pyridin-2-yl)isoindolin-4-yl)pyrrolidine-2-carboxamide], the IC50 was in the range of 1000 to 10000 nM.

As to `CCN1Cc2ccc(NC(=O)[C@@H]3C[C@@H](F)CN3C(=O)Cn3cc(C(C)=O)c4cc(Nc5cncnc5)ccc43)cc2C1=O` [Compound 23, (2S,4R)-1-(2-(3-acetyl-5-(pyrimidin-5-ylamino)-1H-indol-1-yl)acetyl)-N-(2-ethyl-3-oxoisoindolin-5-yl)-4-fluoropyrrolidine-2-carboxamide], the IC50 is below 1000 nM.

For `CC(=O)c1cn(CC(=O)N2C[C@H](F)C[C@H]2C(=O)N[C@@H](C)c2oc3ccc(F)cc3c2C)c2ccc(Nc3cncnc3)cc12` [Compound 75, (2S,4R)-1-(2-(3-acetyl-5-(pyrimidin-5-ylamino)-1H-indol-1-yl)acetyl)-4-fluoro-N-((S)-1-(5-fluoro-3-methylbenzofuran-2-yl)ethyl) pyrrolidine-2-carboxamide], the IC50 is below 1000 nM.

Take `NC(=O)c1nn(CC(=O)N2C[C@H](F)C[C@H]2C(=O)Nc2cccc(-c3ccccc3Cl)c2F)c2ccc(Nc3cnc(C(F)(F)F)nc3)cc12` [Compound 14, 1-(2-((2S,4R)-2-(2′-chloro-2-fluorobiphenyl-3-ylcarbamoyl)-4-fluoropyrrolidin-1-yl)-2-oxoethyl)-5-(2-(trifluoromethyl)pyrimidin-5-ylamino)-1H-indazole-3-carboxamide]: the IC50 is below 1000 nM.

As for `CC(=O)c1cn(CC(=O)N2C[C@H](F)C[C@H]2C(=O)Nc2nc(-c3ccccc3Cl)ns2)c2ccc(Nc3cncnc3)cc12` [Compound 29, (2S,4R)-1-(2-(3-acetyl-5-(pyrimidin-5-ylamino)-1H-indol-1-yl)acetyl)-N-(3-(2-chlorophenyl)-1,2,4-thiadiazol-5-yl)-4-fluoropyrrolidine-2-carboxamide], the IC50 is below 1000 nM.

Regarding `CC(=O)c1cn(CC(=O)N2C[C@H](F)C[C@H]2C(=O)NCc2cc(F)cc(Cl)c2)c2ccc(Nc3cncnc3)cc12` [Compound 18, (2S,4R)-1-(2-(3-acetyl-5-(pyrimidin-5-ylamino)-1H-indol-1-yl)acetyl)-N-(3-chloro-5-fluorobenzyl)-4-fluoropyrrolidine-2-carboxamide], the IC50 is below 1000 nM.

Consider `CC(=O)c1cn(CC(=O)N2C[C@H](F)C[C@H]2C(=O)Nc2nn(C)c3c2CC(C)C(=O)N3)c2ccc(Nc3cncnc3)cc12` (stereo partly drawn) [Compound 67, (2S 4R)-1-(2-(3-acetyl-5-(pyrimidin-5-ylamino)-1H-indol-1-yl)acetyl)-N-(1,5-dimethyl-6-oxo-4,5,6,7-tetrahydro-1H-pyrazolo[3,4-b]pyridin-3-yl)-4-fluoropyrrolidine-2-carboxamide], for which the IC50 is 1000 to 10000 nM.

As for `CC(=O)c1cn(CC(=O)N2C[C@H](F)C[C@H]2C(=O)Nc2cccc3c2OC(C)(C)C3)c2ccc(Nc3cncnc3)cc12` [Compound 24, (2S,4R)-1-(2-(3-acetyl-5-(pyrimidin-5-ylamino)-1H-indol-1-yl)acetyl)-N-(2,2-dimethyl-2,3-dihydrobenzofuran-7-yl)-4-fluoropyrrolidine-2-carboxamide], the IC50 was below 1000 nM.

On to `CC(=O)c1cn(CC(=O)N2C[C@H](F)C[C@H]2C(=O)Nc2cc(C)nn2-c2ccccc2F)c2ccc(Nc3cncnc3)cc12` [Compound 57, (2S,4R)-1-(2-(3-acetyl-5-(pyrimidin-5-ylamino)-1H-indol-1-yl)acetyl)-4-fluoro-N-(1-(2-fluorophenyl)-3-methyl-1H-pyrazol-5-yl)pyrrolidine-2-carboxamide], for which the IC50 is below 1000 nM.

In the case of `CC(=O)c1cn(CC(=O)N2C[C@H](F)C[C@H]2C(=O)Nc2ccc(OCc3ccccc3)cn2)c2ccc(Nc3cncnc3)cc12` [Compound 45, (2S,4R)-1-(2-(3-acetyl-5-(pyrimidin-5-ylamino)-1H-indol-1-yl)acetyl)-N-(5-(benzyloxy)pyridin-2-yl)-4-fluoropyrrolidine-2-carboxamide], the IC50 is below 1000 nM.

As for `CC(=O)c1cn(CC(=O)N2C[C@H](F)C[C@H]2C(=O)N[C@@H]2CCC[C@H]2O)c2ccc(Nc3cncnc3)cc12` [Compound 69, (2S,4R)-1-(2-(3-acetyl-5-(pyrimidin-5-ylamino)-1H-indol-1-yl)acetyl)-4-fluoro-N-((1R,2R)-2-hydroxy-cyclopentyl) pyrrolidine-2-carboxamide], the IC50 lay in the range of 1000 to 10000 nM.

With `CC(=O)c1cn(CC(=O)N2C[C@H](F)C[C@H]2C(=O)NCc2ccccn2)c2ccc(Nc3cncnc3)cc12` [Compound 17, (2S,4R)-1-(2-(3-acetyl-5-(pyrimidin-5-ylamino)-1H-indol-1-yl)acetyl)-4-fluoro-N-(pyridin-2-ylmethyl) pyrrolidine-2-carboxamide], the IC50 is below 1000 nM.

For the molecule `CC(=O)c1cn(CC(=O)N2C[C@H](F)C[C@H]2C(=O)Nc2cccc(-c3ccccc3Cl)c2F)c2ccc(Nc3cncnc3)cc12` [Compound 3, (2S,4R)-1-(2-(3-acetyl-5-(pyrimidin-5-ylamino)-1H-indol-1-yl)acetyl)-N-(2′-chloro-2-fluorobiphenyl-3-yl)-4-fluoropyrrolidine-2-carboxamide], the IC50 was below 1000 nM.

On to `CC(=O)c1cn(CC(=O)N2C[C@H](F)C[C@H]2C(=O)Nc2nc(-c3ccc4c(c3)CCCC4)cs2)c2ccc(Nc3cncnc3)cc12` [Compound 50, (2S,4R)-1-(2-(3-acetyl-5-(pyrimidin-5-ylamino)-1H-indol-1-yl)acetyl)-4-fluoro-N-(4-(5,6,7,8-tetrahy-dronaphthalen-2-yl)thiazol-2-yl)pyrrolidine-2-carboxamide], for which the half-inhibitory concentration (IC50) is above 10000 nM.

The assay is the same for the next values; noted with them: Table 2; Factor D purified from human serum, 80 nM, substrate Z-L-Lys-SBzl; read-out: IC50.
Take `COCCOc1ncc(Nc2ccc3c(c2)c(C(C)=O)cn3CC(=O)N2C[C@H](F)C[C@H]2C(=O)Nc2cccc(Br)n2)cn1` [Compound 76, (2S,4R)-1-(2-(3-acetyl-5-(2-(2-methoxyethoxy)pyrimidin-5-ylamino)-1H-indol-1-yl)acetyl)-N-(6-bromopyridin-2-yl)-4-fluoropyrrolidine-2-carboxamide]: the IC50 was below 1000 nM.

Staying with this assay, now noted: Table 3; Factor D purified from human serum, 80 nM, substrate Z-L-Lys-SBzl; read-out: IC50 (Stars).
Take `CC(=O)c1cn(CC(=O)N2C[C@H](F)C[C@H]2C(=O)NCCCc2ccccc2)c2ccc(Nc3cccnc3)cc12` [Compound 150, (2S,4R)-1-(2-(3-acetyl-5-(pyridin-3-ylamino)-1H-indol-1-yl)acetyl)-4-fluoro-N-(3-phenylpropyl) pyrrolidine-2-carboxamide]: the IC50 was below 1000 nM.

In the case of `CC(=O)c1cn(CC(=O)N2C[C@H](F)C[C@H]2C(=O)NCCCCc2ccccc2)c2ccc(Nc3cccnc3)cc12` [Compound 152, (2S,4R)-1-(2-(3-acetyl-5-(pyridin-3-ylamino)-1H-indol-1-yl)acetyl)-4-fluoro-N-(4-phenylbutyl) pyrrolidine-2-carboxamide], the IC50 is below 1000 nM.

For the molecule `CC(=O)c1cn(CC(=O)N2CC[C@H]2C(=O)Nc2cccc(C)n2)c2ccc(Nc3cccnc3)cc12` [Compound 159, (S)-1-(2-(3-acetyl-5-(pyridin-3-ylamino)-1H-indol-1-yl)acetyl)-N-(6-methylpyridin-2-yl)azetidine-2-carboxamide], the IC50 was above 10000 nM.

`CC(=O)c1nn(CC(=O)N2[C@H](C(=O)Nc3nc(Br)ccc3C)C[C@@]3(C)C[C@@H]23)c2ccc(Nc3cncc(F)c3)cc12` [Compound 165, (1R,3S,5R)-2-(2-(3-acetyl-5-((5-fluoropyridin-3-yl)amino)-1H-indazol-1-yl)acetyl)-N-(6-bromo-3-methylpyridin-2-yl)-5-methyl-2-azabicyclo[3.1.0] hexane-3-carboxamide]: the IC50 is below 1000 nM.

As to `CC(=O)c1nn(CC(=O)N2C[C@H](F)C[C@H]2C(=O)Nc2cccc(Br)n2)c2ccc(Nc3cnc(C)nc3)cc12` [Compound 163, (2S,4R)-1-(2-(3-acetyl-5-((2-methylpyrimidin-5-yl)amino)-1H-indazol-1-yl)acetyl)-N-(6-bromopyridin-2-yl)-4-fluoropyrrolidine-2-carboxamide], the IC50 was below 1000 nM.
